The values below come from US7217704B2, “LPA receptor agonists and antagonists and methods of use” (The University of Tennessee Research Foundation, priority 2003, dated 2007).

Test [1] deals with T1, LPA1 (Homo sapiens, UniProt Q92633).
T1 construct: expressed in transfected cells
The test is described as follows: Ca2+ transients (agonism / inhibition of LPA response) in RH7777 cells stably expressing LPA1. Type of test: cell-based. The settings on record: RH7777 cells expressing LPA1.

The target of test [2] is T2, LPA2 (Homo sapiens, UniProt Q9HBW0).
T2 construct: expressed in transfected cells
T2 sequence (Q9HBW0 whole entry): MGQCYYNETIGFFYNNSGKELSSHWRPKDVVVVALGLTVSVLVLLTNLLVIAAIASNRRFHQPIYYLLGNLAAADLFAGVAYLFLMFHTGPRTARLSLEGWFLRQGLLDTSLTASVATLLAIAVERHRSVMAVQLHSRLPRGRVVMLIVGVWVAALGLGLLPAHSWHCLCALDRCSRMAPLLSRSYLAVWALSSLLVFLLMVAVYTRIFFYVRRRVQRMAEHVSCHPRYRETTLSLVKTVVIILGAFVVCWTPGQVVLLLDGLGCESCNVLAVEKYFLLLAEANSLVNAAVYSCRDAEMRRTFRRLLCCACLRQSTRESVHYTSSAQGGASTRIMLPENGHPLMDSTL
Description: Ca2+ transients (agonism / inhibition of LPA response) in RH7777 cells stably expressing LPA2. The format is cell-based. The settings on record: RH7777 cells expressing LPA2.

Test [3] concerns the target T3, LPA3 (Homo sapiens, UniProt Q9UBY5).
T3 construct: expressed in transfected cells
T3 sequence (Q9UBY5 1-353): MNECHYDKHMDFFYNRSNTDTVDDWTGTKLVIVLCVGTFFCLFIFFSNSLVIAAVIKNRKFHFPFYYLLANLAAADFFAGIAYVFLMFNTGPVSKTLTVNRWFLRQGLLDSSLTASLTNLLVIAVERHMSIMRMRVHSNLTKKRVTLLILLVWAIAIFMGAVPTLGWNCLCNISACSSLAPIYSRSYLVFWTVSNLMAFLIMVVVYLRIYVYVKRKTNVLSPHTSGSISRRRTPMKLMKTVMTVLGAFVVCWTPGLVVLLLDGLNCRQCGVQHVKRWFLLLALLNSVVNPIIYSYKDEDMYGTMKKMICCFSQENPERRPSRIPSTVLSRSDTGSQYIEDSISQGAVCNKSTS
Description: Ca2+ transients (agonism / inhibition of LPA response) in RH7777 cells stably expressing LPA3. Type of test: cell-based. To be noted: RH7777 cells expressing LPA3.

For a further test, the system named is PC-3 cells. Description: Ca2+ transients in PC-3 cells endogenously expressing LPA1-3. The format is cell-based, human. To be noted: inhibition of LPA-induced Ca2+ transients, PC-3 cells.
Test [4] addresses T1, LPA1. To be noted: GTPγS loading assay, HEK293T; read-out: reported Ki at LPA1; cited from earlier work.
Test [5] deals with T2, LPA2. To be noted: GTPγS loading assay, HEK293T; read-out: reported Ki at LPA2; cited from earlier work.
Test [6] has as its target T3, LPA3. The settings on record: GTPγS loading assay, HEK293T; read-out: reported Ki at LPA3; cited from earlier work.
The next test has as its target T4, PPARγ (Homo sapiens, UniProt P37231).
T4 sequence (P37231 1-505): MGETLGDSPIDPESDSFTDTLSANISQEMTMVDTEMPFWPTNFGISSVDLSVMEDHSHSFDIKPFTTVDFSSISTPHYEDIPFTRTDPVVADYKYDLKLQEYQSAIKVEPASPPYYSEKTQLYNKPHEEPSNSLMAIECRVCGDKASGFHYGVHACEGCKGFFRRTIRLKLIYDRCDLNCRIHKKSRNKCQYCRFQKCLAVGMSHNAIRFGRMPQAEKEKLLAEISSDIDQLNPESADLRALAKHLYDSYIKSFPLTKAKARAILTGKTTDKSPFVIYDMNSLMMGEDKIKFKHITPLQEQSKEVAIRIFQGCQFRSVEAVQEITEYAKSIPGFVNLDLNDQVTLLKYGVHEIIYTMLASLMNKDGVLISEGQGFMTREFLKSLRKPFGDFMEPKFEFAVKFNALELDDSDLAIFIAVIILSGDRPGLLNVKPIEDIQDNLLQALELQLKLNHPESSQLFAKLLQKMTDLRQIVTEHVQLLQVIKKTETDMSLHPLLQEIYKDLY
The test is described as follows: PPARγ activation in CV1 cells, PPRE-Acox-Rluc reporter gene assay. To be noted: 10 μM test compound, 20 h. (In general: Reporter assays use an easily measured gene product as a stand-in for the process of interest.)

Where two headings read alike, the source gives them in different places.

T1 sequence (Q92633 whole entry): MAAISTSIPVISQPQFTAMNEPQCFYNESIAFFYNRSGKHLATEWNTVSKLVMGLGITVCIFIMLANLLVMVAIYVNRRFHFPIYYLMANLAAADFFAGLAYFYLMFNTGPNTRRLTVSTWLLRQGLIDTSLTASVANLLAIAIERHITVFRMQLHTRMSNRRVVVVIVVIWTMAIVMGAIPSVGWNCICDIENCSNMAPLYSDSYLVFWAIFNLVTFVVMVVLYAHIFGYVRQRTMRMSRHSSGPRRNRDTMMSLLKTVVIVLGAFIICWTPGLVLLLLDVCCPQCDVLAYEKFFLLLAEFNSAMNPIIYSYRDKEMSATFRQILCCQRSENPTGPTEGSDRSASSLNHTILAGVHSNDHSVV
Description for PPARγ: Comparing the effects with the Rosiglitazone, a known PPARγ agonist, CV1 cells were treated with 1% DMSO or 10 μM of test compound dissolved in DMSO for 20 h. Luciferase and β-galactosidase activities (mean±SEM) were measured in the cell lysate (n=4). *P<0.05 and **P<0.01, significant differences over vehicle control.
The assay of PPARγ activation in CV1 cells was run as reported in Zhang et al. Briefly, CV-1 cells were plated in 96-well plates (5×10^3 cells per well) in Dulbecco's modified Eagle's medium supplemented with 10% fetal bovine serum. […] Samples were run in quadruplicate and the mean±standard errors were calculated. Data are representative of at least two independent transfections. Student's t-test was used for null hypothesis testing and P<0.05 was considered transfection, cells were treated with 1% FBS supplemented OptiMEMI (Invitrogen) containing DMSO or 10 μM test compound dissolved in DMSO for 20 h. Luciferase and β-galactosidase activities were measured with the Steady-Glo® Luciferase Assay significant (in the figures P<0.05 is denoted by * and P<0.01 is **).

On to `Cc1noc(-c2ccc(CSCCC(=O)O)cc2)c1NC(=O)OC(C)c1ccccc1Cl` (centres unmarked) [Ki16425, reference compound], for which the EC50 (commonly the concentration that produces a half-maximal response) was more than 30 µM at LPA1 [1] (induction of Ca2+ transients, read-out: LPA1 EC50); more than 30 µM on LPA2 [2] (induction of Ca2+ transients, read-out: LPA2 EC50); more than 30 µM at LPA3 [3] (induction of Ca2+ transients, read-out: LPA3 EC50). Further, the Ki – broadly, the dissociation constant of the complex between target and ligand, obtained from inhibition or displacement – is 0.425 µM on LPA1 [1] (inhibition of LPA-induced Ca2+ transients); 0.148 µM on LPA3 [3] (inhibition of LPA-induced Ca2+ transients, read-out: LPA3 (Ki)); 1.74 µM in the test on PC-3 cells; 0.25 µM at LPA1 [4]; 5.6 µM on LPA2 [5]; 0.36 µM on LPA3 [6]. Besides, the half-maximal inhibitory concentration (IC50) (as a rule, the point on the concentration scale where inhibition reaches its midpoint) is 0.762 µM on LPA1 [1] (inhibition of LPA-induced Ca2+ transients, read-out: LPA1 IC50); more than 30 µM on LPA2 [2] (inhibition of LPA-induced Ca2+ transients, read-out: LPA2 IC50); 0.301 µM at LPA3 [3] (inhibition of LPA-induced Ca2+ transients, read-out: LPA3 IC50); 3.38 µM in the test with PC-3 cells (read-out: PC-3 IC50). Moreover, at PPARγ, the “PPARγ activation (PPRE-Acox-Rluc reporter) in words” value is “can activate PPRE-Acox-Rluc reporter”.
